Measurements published in patent US11261189B2, “Substituted 2,4 diamino-quinoline as new medicament for fibrosis, autophagy and cathepsins B (CTSB), L (CTSL) and D (CTSD) related diseases” (Genoscience Pharma, priority 2018, dated 2022).
Entries after “also recorded” stand apart in the source; their conditions may differ. Counter-ions that a name gives are not always drawn.

Tested on: autophagy flux (LC3-II) in HepG2 cell line
Experiment: Autophagy flux, LC3-II immunoblot with/without Bafilomycin, HepG2 cell line
Format: cell-based
Details: 4 hours and 24 hours of treatment
Procedure: Since compound 2-3 induced an inhibition of the proteolytic activity of cathepsins B, D and/or L (see example 1) supporting an inhibition of some lysosomal functions which can affect the cellular autophagy flux, the capacity of compound 2-3 to modulate the cellular autophagy processes and functions was evaluated in two Hepatocellular carcinoma (HCC) cell lines: Huh7 and HepG2. For this purpose, the accumulation of LC3-II (Light Chain 3 phosphatidylethanolamine conjugate) in presence or absence of compound 2-3 was analyzed using immunoblot analysis of LC3-II.
The HepG2 cell line was maintained in DMEM low glucose (Cat #21885025, ThermoFischer) containing 1% penicillin-streptomycin (Cat #P06-07100, Dutscher) and 10% FBS (Cat #SV30160.03C, Dutscher). The Huh7 cell line was maintained in DMEM high glucose (Cat #L0103-500, Dutscher) containing 1% penicillin-streptomycin (Cat #P06-07100, Dutscher) and 10% SVF (Cat #SV30160.03C, Dutscher). Cells lines were cultured at 37° C. with 5% CO2.
The day before the experiment, 6-well plates with 250,000 cells for HepG2 and 310,000 cells for Huh7 in 1.8 mL of medium per well were prepared. […]
After 4 hours and 24 hours of cells treatment, the medium was removed from each well. […] Total protein concentration was assessed using the BCA reagent (Cat #23227, ThermoFischer) and cellular lysates were stored at −80° C. until western-blot analysis. […]

For `CC(C)(C)NC1CCN(c2cc(NCc3ccc(Cl)cc3)nc3ccccc23)CC1` [2-3, 2-(4-chlorobenzylamino)-4-(4-tert-butylaminopiperidin-1-yl)-quinoline Hydrochloride Salt], the “accumulation of the LC3-II form” value was “significantly induced, in a dose-dependent manner, an accumulation of the LC3-II form” and the “autophagy flux (LC3-II Baf+/Baf− ratio)” value (Hydrochloride Salt) was “inhibition; also recorded: inhibitor of the autophagy flux”.
